Tests used:
A549/ATCC = assay: NCI-60 one-dose assay; assay type: cell-based; conditions: Homo sapiens, A549/ATCC (Non-Small Cell Lung Cancer), read-out: Cell Inhibition Percent
BT-549 = assay: NCI-60 one-dose assay; assay type: cell-based; conditions: Homo sapiens, BT-549 (Breast Cancer), read-out: Cell Inhibition Percent
CCRF-CEM = assay: NCI-60 one-dose assay; assay type: cell-based; conditions: Homo sapiens, CCRF-CEM (Leukemia), read-out: Cell Inhibition Percent
SNB-19 = assay: NCI-60 one-dose assay; assay type: cell-based; conditions: Homo sapiens, SNB-19 (CNS cancer), read-out: Cell Inhibition Percent
CAKI-1 = assay: NCI-60 one-dose assay; assay type: cell-based; conditions: Homo sapiens, CAKI-1 (Renal Cancer), read-out: Cell Inhibition Percent
K-562 = assay: NCI-60 one-dose assay; assay type: cell-based; conditions: Homo sapiens, K562, K-562 (Leukemia), read-out: Cell Inhibition Percent
NCI-H522 = assay: NCI-60 one-dose assay; assay type: cell-based; conditions: Homo sapiens, NCI-H522 (Non-Small Cell Lung Cancer), read-out: Cell Inhibition Percent
SK-MEL-2 = assay: NCI-60 one-dose assay; assay type: cell-based; conditions: Homo sapiens, SK-MEL-2 (Melanoma), read-out: Cell Inhibition Percent
OVCAR-3 = assay: NCI-60 one-dose assay; assay type: cell-based; conditions: Homo sapiens, OVCAR-3 (ovarian cancer), read-out: Cell Inhibition Percent
DU-145 = assay: NCI-60 one-dose assay; assay type: cell-based; conditions: Homo sapiens, DU-145 (Prostate Cancer), read-out: Cell Inhibition Percent
OVCAR-4 = assay: NCI-60 one-dose assay; assay type: cell-based; conditions: Homo sapiens, OVCAR-4 (ovarian cancer), read-out: Cell Inhibition Percent
NCI-H460 = assay: NCI-60 one-dose assay; assay type: cell-based; conditions: Homo sapiens, NCI-H460 (Non-Small Cell Lung Cancer), read-out: Cell Inhibition Percent
SK-MEL-28 = assay: NCI-60 one-dose assay; assay type: cell-based; conditions: Homo sapiens, SK-MEL-28 (Melanoma), read-out: Cell Inhibition Percent
M14 = assay: NCI-60 one-dose assay; assay type: cell-based; conditions: Homo sapiens, M14 (Melanoma), read-out: Cell Inhibition Percent
RXF 393 = assay: NCI-60 one-dose assay; assay type: cell-based; conditions: Homo sapiens, RXF 393 (Renal Cancer), read-out: Cell Inhibition Percent
T-47D = assay: NCI-60 one-dose assay; assay type: cell-based; conditions: Homo sapiens, T47D, T-47D (Breast Cancer), read-out: Cell Inhibition Percent
MALME-3M = assay: NCI-60 one-dose assay; assay type: cell-based; conditions: Homo sapiens, MALME-3M (Melanoma), read-out: Cell Inhibition Percent
SN12C = assay: NCI-60 one-dose assay; assay type: cell-based; conditions: Homo sapiens, SN12C (Renal Cancer), read-out: Cell Inhibition Percent
SF-295 = assay: NCI-60 one-dose assay; assay type: cell-based; conditions: Homo sapiens, SF-295 (CNS cancer), read-out: Cell Inhibition Percent
HS 578T = assay: NCI-60 one-dose assay; assay type: cell-based; conditions: Homo sapiens, HS 578T (Breast Cancer), read-out: Cell Inhibition Percent
HCC-2998 = assay: NCI-60 one-dose assay; assay type: cell-based; conditions: Homo sapiens, HCC-2998 (Colon Cancer), read-out: Cell Inhibition Percent
SK-OV-3 = assay: NCI-60 one-dose assay; assay type: cell-based; conditions: Homo sapiens, SK-OV-3 (ovarian cancer), read-out: Cell Inhibition Percent
COLO 205 = assay: NCI-60 one-dose assay; assay type: cell-based; conditions: Homo sapiens, COLO 205 (Colon Cancer), read-out: Cell Inhibition Percent
HT29 = assay: NCI-60 one-dose assay; assay type: cell-based; conditions: Homo sapiens, HT-29, HT29 (Colon Cancer), read-out: Cell Inhibition Percent
TK-10 = assay: NCI-60 one-dose assay; assay type: cell-based; conditions: Homo sapiens, TK-10 (Renal Cancer), read-out: Cell Inhibition Percent
SW-620 = assay: NCI-60 one-dose assay; assay type: cell-based; conditions: Homo sapiens, SW-620 (Colon Cancer), read-out: Cell Inhibition Percent
RPMI-8226 = assay: NCI-60 one-dose assay; assay type: cell-based; conditions: Homo sapiens, RPMI-8226 (Leukemia), read-out: Cell Inhibition Percent
SR = assay: NCI-60 one-dose assay; assay type: cell-based; conditions: Homo sapiens, SR (Leukemia), read-out: Cell Inhibition Percent
NCI/ADR-RES = assay: NCI-60 one-dose assay; assay type: cell-based; conditions: Homo sapiens, NCI/ADR-RES (ovarian cancer), read-out: Cell Inhibition Percent
HOP-62 = assay: NCI-60 five-dose assay; assay type: cell-based, human; conditions: HOP-62, Non-Small Cell Lung Cancer

Structure (SMILES)	inhibition at 10 µM (A549/ATCC)	inhibition at 10 µM (BT-549)	inhibition at 10 µM (CCRF-CEM)	inhibition at 10 µM (SNB-19)	inhibition at 10 µM (CAKI-1)	inhibition at 10 µM (K-562)	inhibition at 10 µM (NCI-H522)	inhibition at 10 µM (SK-MEL-2)	inhibition at 10 µM (OVCAR-3)	inhibition at 10 µM (DU-145)	inhibition at 10 µM (OVCAR-4)	inhibition at 10 µM (NCI-H460)	inhibition at 10 µM (SK-MEL-28)	inhibition at 10 µM (M14)	inhibition at 10 µM (RXF 393)	inhibition at 10 µM (T-47D)	inhibition at 10 µM (MALME-3M)	inhibition at 10 µM (SN12C)	inhibition at 10 µM (SF-295)	inhibition at 10 µM (HS 578T)	further results
CN(C)c1ccc(C=NNC(=O)c2ccc3[nH]c(-c4ccc(Cl)cc4)nc3c2)cc1 [Compound 4b, N′-(4-(Dimethylamino)benzylidene)-2-(4-chlorophenyl)-1H-benzimidazole-5-carbohydrazide]	0%	0%	6.5%	0%	4.4%	5.96%	3.02%	0%	0%	0%	0%	2.77%	0%	3.58%	7.79%	14.1%	12.9%	1.47%	1.06%	6.32%	inhibition at 10 µM (HCC-2998): 6.31%; inhibition at 10 µM (SK-OV-3): 0%; inhibition at 10 µM (COLO 205): 0%; inhibition at 10 µM (HT29): 2.26%; inhibition at 10 µM (TK-10): 0%; inhibition at 10 µM (SW-620): 0%; inhibition at 10 µM (RPMI-8226): 5.27%; inhibition at 10 µM (SR): 2.54%; inhibition at 10 µM (NCI/ADR-RES): 0.43%
COc1ccc(C=NNC(=O)c2ccc3[nH]c(-c4ccc(Cl)cc4)nc3c2)cc1 [Compound 4g, N′-(4-Methoxybenzylidene)-2-(4-chlorophenyl)-1H-benzimidazole-5-carbohydrazide]	88%	43.1%	34.7%	75.8%	39.5%	68.1%	17.4%	35.9%	79.9%	20.7%	131%	94.1%	87.5%	73.8%	56.2%	76.7%	93.5%	93.8%	139%	67.7%	TGI (HOP-62): 6.37 µM; GI50 (HOP-62; Homo sapiens, read-out: GI50 Conc. per Cell Line): 1.88 µM; CC50 (HOP-62; Homo sapiens, read-out: LC50 (the source's name)): 53.6 µM; inhibition at 10 µM (HCC-2998): 48.9%; inhibition at 10 µM (SK-OV-3): 27.7%; inhibition at 10 µM (COLO 205): 77.1%; inhibition at 10 µM (HT29): 78.1%; inhibition at 10 µM (TK-10): 60.9%; inhibition at 10 µM (SW-620): 75.6%; inhibition at 10 µM (RPMI-8226): 40.8%; inhibition at 10 µM (SR): 99.3%; inhibition at 10 µM (NCI/ADR-RES): 26.4%
O=C(NN=Cc1ccccc1)c1ccc2[nH]c(-c3ccc(Cl)cc3)nc2c1 [Compound 4a, N′-Benzylidene-2-(4-chlorophenyl)-1H-benzimidazole-5-carbohydrazide]	0%	4.12%	11.2%	0%	1.57%	7.37%	1%	0%	0%	3.83%	0%	0%	0%	8.89%	15.5%	18.2%	1.28%	3.99%	13.2%	7.92%	inhibition at 10 µM (HCC-2998): 0%; inhibition at 10 µM (SK-OV-3): 4.7%; inhibition at 10 µM (COLO 205): 0.76%; inhibition at 10 µM (HT29): 3.67%; inhibition at 10 µM (TK-10): 0%; inhibition at 10 µM (SW-620): 0%; inhibition at 10 µM (RPMI-8226): 13.8%; inhibition at 10 µM (SR): 18.1%; inhibition at 10 µM (NCI/ADR-RES): 0%
